Key:
[1] = biological target: T1, OhyA Q265A/T436A/N438A (Elizabethkingia meningoseptica, UniProt C7DLJ6, N438A/Q265A/T436A); test: Whole cell E. coli biotransformation, hydration of oleic acid and derivatives by mutant OhyA Q265A/T436A/N438A; format: cell-based; conditions: for e.e. of hydrated product: abs. conf. at C-10: R, table does not separate WT and mutant; for Apparent hydration activity normalized for biomass, OhyA Q265A/T436A/N438A: whole cell E. coli biocatalyst, 2 mM substrate, 30° C., pH 6.0; for relative hydration activity compared to wt-OhyA: OhyA Q265A/T436A/N438A versus wt-OhyA
T1 construct: His tag with TEV site by the vector name (HISTEV); expressed in transfected cells; host or cells: E. coli BL21 Star (DE3)
Method: (§1) Free fatty acids were identified and analyzed by gas chromatography-mass spectrometry (GC-MS) and comparison of derived mass fragmentation spectra to authentic standards. A HP-5 column (crosslinked 5% Ph-Me Siloxane; 30 m length, 0.25 mm in diameter and 0.25 μm film thickness) on a Hewlett-Packard 6890 Series II GC equipped with a mass selective detector was used. Sample aliquots of 1 μL were injected in split mode (split ratio 30:1) at 240° C. injector temperature and 290° C. detector temperature with N2 as carrier at a flow rate set to 36 cm s^−1 in constant flow mode. The temperature program was as follows: 100° C. for 1 min, 15° C. min^−1 to 300° C., hold for 5 min. The total run time was 19.33 min. The mass selective detector was operated in a mass range of 50-400 amu at an electron multiplier voltage of 1765 V. Results were evaluated with the GC-MS Data Analysis software (Agilent Technologies, Austria).
(§2) OhyA was recombinantly expressed in E. coli. First, a pre-culture was inoculated with E. coli BL21 Star (DE3) cells harboring pMS470-HISTEV-OhyA wild type enzyme or variants, and was grown in LB supplemented with 100 μg mL^−1 ampicillin at 28° C. and 130 rpm overnight. Main cultures were inoculated to an OD600 of 0.1 in auto induction medium (AIM)—Terrific Broth Base including Trace elements (Formedium, UK) containing 100 μg mL^−1 ampicillin. Recombinant protein was expressed at 28° C. and 130 rpm for 22 h. Cells were harvested by centrifugation for 10 min at 4,400×g and 22° C. and were instantly used for whole cell biotransformation or were frozen at −20° C. until protein purification.
(§3) For bioconversion assays of oleic acid (OA) and OA derivatives, i.e. substrates (1) to (10), 50 OD600 units of thus prepared cells, which are corresponding to a cell dry weight of 50 mg, were resuspended in 50 mM HEPES, pH 6.0, supplemented with 100 mM glucose and 0.2 mM FAD in Pyrex® glass culture tubes (Corning, N.Y.). Biotransformation at 1 mL scale were started by adding substrate to a final concentration of 2 mM from an ethanolic stock solution (100 mM). n-pentadecanoic acid (1 mM) was used as internal standard. The reactions were conducted in the presence of 2% (v/v) of ethanol as co-solvent at 30° C. and shaking at 150 rpm at a defined angle of the Pyrex® tubes (55°). Biotransformation were performed for 22 h or 96 h. The assays were quenched by acidification to pH 2.0 with 0.12 M HCl, and fatty acid derivatives were extracted twice with 2 mL of ethyl acetate while agitating on a Vibrax VXR basic shaker (IKA, Germany) for 30 min. The suspension was centrifuged for 5 min at 2,900×g and 22° C. to improve the separation of the phases. Combined organic phases were concentrated under a N2 stream. Fatty acid derivatives were silylated with 10 μL of pyridine and 50 μL of N,O-bis(trimethylsilyl)trifluoroacetamide (BSTFA). After incubation for 30 min at 500 rpm, extracts were diluted with 200 μL of ethyl acetate and analyzed by GC-MS. […]

[2] = biological target: T2, OhyA wild type (WT) (Elizabethkingia meningoseptica, UniProt C7DLJ6); test: Whole cell E. coli biotransformation, hydration of oleic acid and derivatives by OhyA wild type; format: cell-based; conditions: whole cell E. coli biocatalyst, 2 mM substrate, 30° C., pH 6.0
T2 construct: His tag with TEV site by the vector name (HISTEV); expressed in transfected cells; host or cells: E. coli BL21 Star (DE3)
Method: as §1, §2, §3

[3] = biological target: oleate hydratase from Elizabethkingia meningoseptica (OhyA, EC 4.2.1.53) (Elizabethkingia meningoseptica, UniProt C7DLJ6); conditions: wild-type OhyA, without co-factor recycling; cited from earlier work
[4] = biological target: T3, OhyA Q265A/N438A (Elizabethkingia meningoseptica, UniProt C7DLJ6, N438A/Q265A); test: Bioconversion with modified OhyA variant Q265A/N438A; format: cell-based; conditions: OhyA Q265A/N438A in bioconversions
T3 construct: His tag with TEV site by the vector name (HISTEV); expressed in transfected cells; host or cells: E. coli BL21 Star (DE3)
Method: as §2
For bioconversion assays of oleic acid (OA) and OA derivatives, i.e. substrates (1) to (10), 50 OD600 units of thus prepared cells, which are corresponding to a cell dry weight of 50 mg, were resuspended in 50 mM HEPES, pH 6.0, supplemented with 100 mM glucose and 0.2 mM FAD in Pyrex® glass culture tubes (Corning, N.Y.). Biotransformation at 1 mL scale were started by adding substrate to a final concentration of 2 mM from an ethanolic stock solution (100 mM). n-pentadecanoic acid (1 mM) was used as internal standard. […] After incubation for 30 min at 500 rpm, extracts were diluted with 200 μL of ethyl acetate and analyzed by GC-MS.

[5] = biological target: T4, mutant OhyA Q265A/T436A/N438A (Elizabethkingia meningoseptica, UniProt C7DLJ6, N438A/Q265A/T436A); test: Anaerobic in vitro hydration with purified OhyA after reduction of the FAD cofactor; format: biochemical; conditions: purified enzyme, reduced FAD, overnight incubation, wt-OhyA compared with mutant
T4 construct: His tag with TEV site by the vector name (HISTEV); made in house; host or cells: E. coli BL21 Star (DE3)
Method: For purification of the recombinant OhyA, cell pellets were resuspended in 50 mM HEPES, pH 7.4, containing 10 mM imidazole. Cells were lysed by ultrasonication for 4 min with a Sonifier® 250 (Branson, Danbury, Conn.) setting the duty cycle to 80% and the output control to level 8. Cell free extract (CFE) was separated from the total cell lysate (TCL) by centrifugation for 35 min at 48,300×g and 4° C., and was filtered through 0.22 μm filters (Millipore, Bedford, Mass.) prior to loading it onto a pre-equilibrated self-packed Ni-NTA affinity chromatography column (GE Healthcare, United Kingdom). Prior to any further analyses, purified OhyA was incubated with a 10-fold molar excess of FAD over night at 4° C. Unbound FAD was removed from the protein aliquot by buffer exchange via PD-10 desalting columns (GE Healthcare, United Kingdom) according to the recommended protocol.
For reduction of the enzyme-bound flavin cofactor, wt-OhyA and mutant Q265A/T436A/N438A were diluted in 50 mM HEPES, pH 7.4, containing 50 mM NaCl, 5 mM EDTA, 1 μM 5-deazariboflavin and 4 μM methyl viologen to give an absorption of approximately 0.2 AU at 440 nm. The solution was transferred to a cuvette and oxygen was removed by incubation for at least 2 h in a glove box. Afterwards, the cofactor was reduced by anaerobic photoreduction or chemical reduction with dithiothreitol (DTT). […]

T2 sequence (C7DLJ6 whole entry): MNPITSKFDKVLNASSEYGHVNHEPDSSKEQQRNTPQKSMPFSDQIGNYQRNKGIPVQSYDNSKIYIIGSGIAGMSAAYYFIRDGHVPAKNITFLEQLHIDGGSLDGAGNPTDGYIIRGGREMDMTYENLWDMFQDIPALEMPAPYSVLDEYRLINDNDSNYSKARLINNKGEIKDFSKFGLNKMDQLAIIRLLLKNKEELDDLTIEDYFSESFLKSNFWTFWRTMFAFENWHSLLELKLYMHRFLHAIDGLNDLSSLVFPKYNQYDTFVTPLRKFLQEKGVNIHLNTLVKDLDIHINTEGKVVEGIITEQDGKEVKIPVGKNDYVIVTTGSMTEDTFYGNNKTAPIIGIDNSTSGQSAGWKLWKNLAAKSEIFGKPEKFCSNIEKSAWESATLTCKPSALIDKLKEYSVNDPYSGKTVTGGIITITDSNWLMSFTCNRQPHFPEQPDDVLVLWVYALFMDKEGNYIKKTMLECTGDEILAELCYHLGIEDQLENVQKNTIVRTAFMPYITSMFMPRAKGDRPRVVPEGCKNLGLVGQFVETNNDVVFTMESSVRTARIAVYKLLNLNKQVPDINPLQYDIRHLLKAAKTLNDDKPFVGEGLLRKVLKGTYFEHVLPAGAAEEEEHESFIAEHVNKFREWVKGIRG
T1 sequence (C7DLJ6 whole entry Q265A/T436A/N438A): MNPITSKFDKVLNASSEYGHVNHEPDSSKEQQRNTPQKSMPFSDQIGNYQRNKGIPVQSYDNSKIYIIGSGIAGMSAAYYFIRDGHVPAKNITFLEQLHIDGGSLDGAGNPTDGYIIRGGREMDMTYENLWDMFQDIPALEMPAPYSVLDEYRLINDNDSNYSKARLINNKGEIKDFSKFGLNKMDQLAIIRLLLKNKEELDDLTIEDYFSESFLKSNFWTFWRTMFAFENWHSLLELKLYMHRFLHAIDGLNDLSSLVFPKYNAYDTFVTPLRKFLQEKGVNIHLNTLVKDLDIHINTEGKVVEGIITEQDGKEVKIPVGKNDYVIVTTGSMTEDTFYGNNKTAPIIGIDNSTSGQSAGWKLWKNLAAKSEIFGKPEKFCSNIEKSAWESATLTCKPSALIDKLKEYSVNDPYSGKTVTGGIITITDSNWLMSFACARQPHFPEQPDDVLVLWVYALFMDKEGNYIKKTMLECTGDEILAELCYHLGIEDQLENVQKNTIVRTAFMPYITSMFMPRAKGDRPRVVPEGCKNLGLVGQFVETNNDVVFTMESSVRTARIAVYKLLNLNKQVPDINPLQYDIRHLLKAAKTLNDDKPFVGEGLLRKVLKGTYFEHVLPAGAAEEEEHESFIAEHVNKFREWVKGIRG
Chain of oleate hydratase from Elizabethkingia meningoseptica (OhyA, EC 4.2.1.53) (C7DLJ6 whole entry): as the sequence (C7DLJ6 whole entry) above
T4 sequence (C7DLJ6 whole entry Q265A/T436A/N438A): as the sequence (C7DLJ6 whole entry Q265A/T436A/N438A) above
T3 sequence (C7DLJ6 whole entry Q265A/N438A): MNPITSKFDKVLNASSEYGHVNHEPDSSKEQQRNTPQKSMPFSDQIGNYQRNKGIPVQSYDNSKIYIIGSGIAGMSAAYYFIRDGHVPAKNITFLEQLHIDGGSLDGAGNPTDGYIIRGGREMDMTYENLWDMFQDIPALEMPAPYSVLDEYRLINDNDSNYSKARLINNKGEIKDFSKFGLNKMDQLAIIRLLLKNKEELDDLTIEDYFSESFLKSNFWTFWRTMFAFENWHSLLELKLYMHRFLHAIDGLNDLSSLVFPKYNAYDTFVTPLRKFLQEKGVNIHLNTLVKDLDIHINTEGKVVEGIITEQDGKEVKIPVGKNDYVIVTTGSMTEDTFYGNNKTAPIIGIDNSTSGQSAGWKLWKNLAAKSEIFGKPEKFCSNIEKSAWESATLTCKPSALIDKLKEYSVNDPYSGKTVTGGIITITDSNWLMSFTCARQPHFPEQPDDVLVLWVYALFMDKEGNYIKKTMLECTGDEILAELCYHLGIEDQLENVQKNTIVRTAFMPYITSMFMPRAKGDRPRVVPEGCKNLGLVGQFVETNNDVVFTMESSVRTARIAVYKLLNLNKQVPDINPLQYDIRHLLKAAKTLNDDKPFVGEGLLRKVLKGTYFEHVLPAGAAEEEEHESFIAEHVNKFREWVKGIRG

SMILES	e.e. of hydrated product [1] [%]	Apparent hydration activity normalized for biomass, OhyA Q265A/T436A/N438A [1] [mU g^−1 CDW]	Apparent hydration activity normalized for biomass, OhyA WT [2] [mU g^−1 CDW]	enantiomeric excess (ee) of (R)-10-hydroxy stearic acid [3]	relative hydration activity compared to wt-OhyA [1]	enhanced relative hydration activity [4]	peak at the expected retention time of the hydrated product (GC-MS) [5]
CCCCCCCC/C=C\CCCCCCCC(=O)O [Entry 1, oleic acid]	>99	28.4 ± 0.3	26.3 ± 0.2	at least 98%	–	–	–
CCCCCCCC/C=C\CCCCCCCCN [Entry 2, oleyl amine]	>99	–	–	–	–	–	–
CCCCCCCC/C=C\CCCCCCCC(N)=O [Entry 3, oleamide]	>99	10.7 ± 0.3	11.1 ± 0.7	–	–	–	–
CCCCCCCC/C=C\CCCCCCCC(=O)NO [Entry 4, N-hydroxy oleamide]	>99	13.4 ± 2.5	3.4 ± 0.7	–	at least 5 fold	at least 5 fold	–
CCCCCCCC/C=C\CCCCCCCCO [Entry 5, oleyl alcohol]	>99	15.5 ± 1.0	8.4 ± 2.1	–	at least 2 fold	–	–
CCCCCCCC/C=C\CCCCCCCC(=O)OC [Entry 6, methyl oleate]	>99	2.5 ± 0.2	0.3 ± 0.1	–	6 fold	–	only in the case of the variant
CCCCCCCC/C=C\CCCCCCCC(=O)OCC [Entry 7, ethyl oleate]	>99	1.7 ± 0.1	0.2 ± 0.1	–	6 fold	–	–
CCCCCCCC/C=C\CCCCCCCC(=O)OC(C)C [Entry 8, i-propyl oleate]	>99	1.5 ± 0.1	0.1 ± 0.1	–	–	–	–
CCCCCCCC/C=C\CCCCCCCC(=O)OCCC [Entry 9, n-propyl oleate]	>99	0.9 ± 0.1	0.2 ± 0.1	–	20 fold	–	–
CCCCCCCC/C=C\CCCCCCCC(=O)OCCCC [Entry 10, n-butyl oleate]	>99	0.8 ± 0.1	0.1 ± 0.1	–	–	–	–
